# Assay results reported in patent US20060079453A1, “Hla binding peptides and their uses” (priority 2002, published 2006).
# No end group written: not given here.
# Columns and labels:
# Assay in all cases: biochemical
# Assay type in all cases: binding
# HLA-DR DRB1*0802 (DR8) = HLA-DR DRB1*0802 (DR8) (Homo sapiens, UniProt P01903+P01911, A100R/A103L/A169T/F76Y/H45Y/I96F/K41T/L162R/M171V/P40S/Q125H/Q178H/Q39Y/Q99D/R218S/R42G/S66Y/V115G/W38E)
# HLA-DR DRB1*0701 (DR7) = HLA-DR DRB1*0701 (DR7) (Homo sapiens, UniProt P01903+P01911, A100R/A102G/A103Q/D57E/D86V/E43K/F76Y/K127E/L162R/M171V/P40G/Q125H/Q99D/R33Q/R42Y/R54Q/S133A/S66F/T210M/V115G/Y107V/Y59L/Y89S); conditions: DRB1 *0701
# HLA-DR DRB3*0101 (DR52) = HLA-DR DRB3*0101 (DR52) (Homo sapiens, UniProt P01903+P79483)
# HLA-DR DRB1*0101 (DR1) = HLA-DR DRB1*0101 (DR1) (Homo sapiens, UniProt P01903+P01911, A100R/D57E/F55L/F60I/F76Y/I96L/L162R/M171V/P40L/Q125E/R42F/V115G/Y59C); conditions: DRB1 *0101
# HLA-DR DRB1*0401 (DR4) = HLA-DR DRB1*0401 (DR4) (Homo sapiens, UniProt P01903+P01911, A100K/A169T/F76Y/I96L/K127E/L162R/M171V/N62H/P40V/Q125Y/R42H/S133A/S149N/S66Y/V115G/V209L/W38E); conditions: DRB1 *0401
# HLA-DR DRB1*1101 (DR11) = HLA-DR DRB1*1101 (DR11) (Homo sapiens, UniProt P01903+P01911, A100R/A169T/A87E/I96F/K41T/L162R/M171V/P40S/Q125H/Q178H/Q39Y/Q99D/R42S/S66Y/T262R/V115G/W38E); conditions: DRB1 *1101
# HLA-DR DRB1*0301 (DR3) = HLA-DR DRB1*0301 (DR3) (Homo sapiens, UniProt P01903+P01911, A100K/A102G/A103R/A169T/F55Y/I96L/K41T/L162R/M171V/P40S/Q125H/Q178H/Q39Y/R42S/S66N/T106N/T262R/W38E/Y61H)
# HLA-DR DRB1*1501 (DR15) = HLA-DR DRB1*1501 (DR15) (Homo sapiens, UniProt P01903+P01911); conditions: DRBI *1501
# HLA-DR DRB1*0405 (DR4) = HLA-DR DRB1*0405 (DR4) (Homo sapiens, UniProt P01903+P01911, A100R/A169T/D86S/F76Y/I96L/K127E/L162R/M171V/N62H/P40V/Q125Y/R42H/S133A/S149N/S66Y/V115G/V209L/W38E); conditions: DRB1 *0405
# HLA-DR DRB4*0101 (DR53) = HLA-DR DRB4*0101 (DR53) (Homo sapiens, UniProt P01903+P13762, G164S); conditions: DRB4 *0101
# HLA-DR DRB1*1302 (DR13) = HLA-DR DRB1*1302 (DR13) (Homo sapiens, UniProt P01903+P01911, A100E/A169T/K41T/L162R/M171V/P40S/Q125H/Q178H/Q39Y/Q99D/R42S/S66N/T262R/V115G/W38E/Y61H); conditions: DRBI *1302
# HLA-DR DRB1*0901 (DR9) = HLA-DR DRB1*0901 (DR9) (Homo sapiens, UniProt P01903+P01911, A100R/A103E/D57H/D86V/F55Y/F60I/F76Y/I96F/K127E/L162R/M171V/P40D/Q125H/Q99R/R33Q/R42F/S133A/S66N/T210M/V115G/W38K/Y107V/Y59G/Y89S); conditions: DRB1 *0901
# HLA-DR DRB5*0101 (DR51) = HLA-DR DRB5*0101 (DR51) (Homo sapiens, UniProt P01903+Q30154); conditions: DRB5 *0101
# Sequence of HLA-DR DRB1*0301 (DR3) (P01903 26-254 limits assumed, other chains not shown): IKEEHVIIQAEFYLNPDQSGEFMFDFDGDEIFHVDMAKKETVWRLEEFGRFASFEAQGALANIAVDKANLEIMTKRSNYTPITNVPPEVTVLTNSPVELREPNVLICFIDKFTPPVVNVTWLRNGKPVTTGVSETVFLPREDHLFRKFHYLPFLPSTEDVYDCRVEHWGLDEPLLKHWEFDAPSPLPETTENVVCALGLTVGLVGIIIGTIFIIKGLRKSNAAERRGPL
# Sequence of HLA-DR DRB1*1302 (DR13) (P01903 26-254 limits assumed, other chains not shown): as above
# Sequence of HLA-DR DRB1*1101 (DR11) (P01903 26-254 limits assumed, other chains not shown): as above
Sequence,IC50 (HLA-DR DRB1*0802 (DR8)),IC50 (HLA-DR DRB1*0701 (DR7)),IC50 (HLA-DR DRB3*0101 (DR52)),IC50 (HLA-DR DRB1*0101 (DR1)),IC50 (HLA-DR DRB1*0401 (DR4)),IC50 (HLA-DR DRB1*1101 (DR11)),IC50 (HLA-DR DRB1*0301 (DR3)),IC50 (HLA-DR DRB1*1501 (DR15)),IC50 (HLA-DR DRB1*0405 (DR4)),IC50 (HLA-DR DRB4*0101 (DR53)),IC50 (HLA-DR DRB1*1302 (DR13)),IC50 (HLA-DR DRB1*0901 (DR9)),IC50 (HLA-DR DRB5*0101 (DR51))
QTQKLLWQLNGRLEY,2040 nM,3100 nM,6580 nM,32 nM,55 nM,20700 nM,3550 nM,20 nM,86 nM,88 nM,121 nM,,
RMSSLHLKRYYGRIL,277 nM,283 nM,> 26200 nM,275 nM,993 nM,1040 nM,,1.3 nM,34 nM,2260 nM,2530 nM,15000 nM,491 nM
RSSNCQSQKLLWQLN,6940 nM,,68800 nM,2050 nM,595 nM,> 60600 nM,57900 nM,2960 nM,4010 nM,27 nM,1960 nM,,
RTGQIFKQTYSKFDT,16400 nM,46 nM,14700 nM,1550 nM,1680 nM,6960 nM,20300 nM,155 nM,40 nM,201 nM,66 nM,,64 nM
SFLQNPQTSLTFSES,> 33300 nM,6200 nM,864 nM,,7780 nM,> 15400 nM,2390 nM,1510 nM,9560 nM,,121 nM,,
SNLELLRICLLLIQS,19800 nM,1220 nM,17000 nM,,,> 15400 nM,61900 nM,90 nM,1110 nM,164 nM,773 nM,,> 11800 nM
SWLEPVQFLRSVFAN,3420 nM,589 nM,> 270000 nM,11 nM,,,167000 nM,,883 nM,,4320 nM,4000 nM,4810 nM
TSLTFSESIPTPSNR,17600 nM,,> 95200 nM,,18 nM,22200 nM,17400 nM,,686 nM,3480 nM,16 nM,2460 nM,> 1340 nM
VEALYLVCGERGFFY,24600 nM,3870 nM,4440 nM,76 nM,209 nM,3560 nM,17600 nM,,1040 nM,30 nM,4400 nM,2230 nM,25500 nM
VEALYLVTGERGFFY,1220 nM,195 nM,17200 nM,9.9 nM,60 nM,4860 nM,2010 nM,,2340 nM,13 nM,,683 nM,78 nM
YLVCGERGFFYTDKT,> 54400 nM,92300 nM,616 nM,,> 20500 nM,> 60600 nM,11800 nM,> 25600 nM,> 30100 nM,48100 nM,1010 nM,,> 28400 nM
YLVTGERGFFYTDKT,> 25800 nM,,359 nM,3260 nM,> 20500 nM,16800 nM,,> 25600 nM,> 30100 nM,30800 nM,17400 nM,2910 nM,> 28400 nM
